≈ marks a conversion by molar mass, not a printed value.
What was measured:
Mycobacterium avium [1] = conditions: isolate MAV1
Description: Inhibition of multidrug resistance efflux pump in Mycobacterium avium isolate MAV1 assessed as potentiation of ofloxacin-induced antibacterial activity by measuring ofloxacin MIC at 1/2 MIC incubated for 3 days by MTT assay (Rvb = 4 ug/ml)

Mycobacterium avium [2] = conditions: isolate MAV2
Mycobacterium avium [3] = conditions: isolate MAV1; remark: listed apart in the source
Mycobacterium avium [4] = conditions: isolate MAV3
Mycobacterium avium [5] = conditions: isolate MAV4
Mycobacterium avium [6] = conditions: 104 mc'2 3
[7] = test system: Mycobacterium avium subsp. avium ATCC 25291
Description: Inhibition of multidrug resistance efflux pump in Mycobacterium avium ATCC 25291 assessed as potentiation of ethidium bromide-induced antibacterial activity by measuring ethidium bromide MIC at 1/2 MIC incubated for 3 days by MTT assay (Rvb = 50 ug/ml)

Mycobacterium avium [8] = conditions: 104
Mycobacterium avium [9] = conditions: isolate MAV1; remark: listed apart in the source
Mycobacterium avium [10] = conditions: isolate MAV2; remark: listed apart in the source
Mycobacterium avium [11] = conditions: 104 mc'2 4
Mycobacterium avium [12] = conditions: isolate MAV1; remark: listed apart in the source
Mycobacterium avium [13] = conditions: 104 mc'2 3; remark: listed apart in the source
[14] = test system: Mycobacterium avium subsp. avium ATCC 25291; remark: listed apart in the source
Mycobacterium avium [15] = conditions: isolate MAV4; remark: listed apart in the source
Mycobacterium avium [16] = conditions: 104 mc'2 4; remark: listed apart in the source
[17] = Safety index, ratio of CC50 for test compound to CC50 for thioridazine for cytotoxicity in human monocyte-derived macrophages; format: cell-based, Macrophage cell line
[18] = test system: Mycobacterium avium subsp. avium ATCC 25291; remark: listed apart in the source
Mycobacterium avium [19] = conditions: 104 mc'2 4; remark: listed apart in the source
Mycobacterium avium [20] = conditions: 104 mc'2 3; remark: listed apart in the source
Mycobacterium avium [21] = conditions: isolate MAV1; remark: listed apart in the source
[22] = test system: Mycobacterium avium subsp. avium ATCC 25291; remark: listed apart in the source
Mycobacterium avium [23] = conditions: isolate MAV3; remark: listed apart in the source
[24] = test system: Mycolicibacterium smegmatis; assay: Antimycobacterial activity against Mycobacterium smegmatis str. MC2 155 assessed as reduction in bacterial viability incubated for 3 days by MTT assay; format: organism-based; conditions: 72 h
Mycobacterium avium [25] = conditions: 104; remark: listed apart in the source
Mycobacterium avium [26] = conditions: 104 mc'2 3; remark: listed apart in the source
Mycobacterium avium [27] = conditions: isolate MAV2; remark: listed apart in the source
Description: Inhibition of multidrug resistance efflux pump in Mycobacterium avium isolate MAV2 assessed as potentiation of clarithromycin -induced antibacterial activity by measuring clarithromycin MIC at 1/4 MIC incubated for 3 days by MTT assay (Rvb = >1024 ug/ml)

Mycobacterium avium [28] = conditions: isolate MAV4; remark: listed apart in the source
Mycobacterium avium [29] = conditions: isolate MAV4; remark: listed apart in the source
[30] = test system: Mycobacterium avium subsp. avium ATCC 25291; remark: listed apart in the source
Mycobacterium avium [31] = conditions: 104 mc'2 3; remark: listed apart in the source
Mycobacterium avium [32] = conditions: isolate MAV1; remark: listed apart in the source
Mycobacterium avium [33] = conditions: 104; remark: listed apart in the source
Mycobacterium avium [34] = conditions: isolate MAV1; remark: listed apart in the source
Description: Inhibition of multidrug resistance efflux pump in Mycobacterium avium isolate MAV1 assessed as potentiation of ofloxacin-induced antibacterial activity by measuring ofloxacin MIC at 1/4 MIC incubated for 3 days by MTT assay (Rvb = 4 ug/ml)

Mycobacterium avium [35] = conditions: isolate MAV2; remark: listed apart in the source
Mycobacterium avium [36] = conditions: in vivo, 72 h
Description: Antimycobacterial activity against Mycobacterium avium 104 mc'2 3 assessed as reduction in bacterial viability incubated for 3 days by MTT assay

Mycobacterium avium [37] = conditions: 104 mc'2 4; remark: listed apart in the source
Mycobacterium avium [38] = conditions: isolate MAV3; remark: listed apart in the source
[39] = test system: Mycobacterium avium subsp. avium ATCC 25291; remark: listed apart in the source
Mycobacterium avium [40] = conditions: isolate MAV1; remark: listed apart in the source
Mycobacterium avium [41] = conditions: 104 mc'2 3; remark: listed apart in the source
Mycobacterium avium [42] = conditions: 104; remark: listed apart in the source
Description: Inhibition of multidrug resistance efflux pump in Mycobacterium avium 104 assessed as potentiation of clarithromycin -induced antibacterial activity by measuring clarithromycin MIC at 1/2 MIC incubated for 3 days by MTT assay

Mycobacterium avium [43] = conditions: isolate MAV4; remark: listed apart in the source
Mycobacterium avium [44] = conditions: 104 mc'2 4; remark: listed apart in the source

Question: Which results are given for `CCCOc1ccc(-c2cn(CCN(CC)CC)c3ccccc3c2=O)cc1`?
Answer: MIC (Mycobacterium avium [1]): 4 µg/mL (≈ 10.6 µM); MIC (Mycobacterium avium [2]): 16 µg/mL (≈ 42.3 µM); MIC (Mycobacterium avium [3]): 0.5 µg/mL (≈ 1.32 µM); MIC (Mycobacterium avium [4]): 32 µg/mL (≈ 84.5 µM); MIC (Mycobacterium avium [5]): 6.25 µg/mL (≈ 16.5 µM); MIC (Mycobacterium avium [6]): 4 µg/mL (≈ 10.6 µM); MIC [7]: 25 µg/mL (≈ 66 µM); MIC (Mycobacterium avium [8]): 16 µg/mL (≈ 42.3 µM); MIC (Mycobacterium avium [9]): 32 µg/mL (≈ 84.5 µM); MIC (Mycobacterium avium [10]): 6.25 µg/mL (≈ 16.5 µM); MIC (Mycobacterium avium [11]): > 512 µg/mL; MIC (Mycobacterium avium [12]): 16 µg/mL (≈ 42.3 µM); MIC (Mycobacterium avium [13]): 512 µg/mL (≈ 1350 µM); MIC [14]: 128 µg/mL (≈ 338 µM); MIC (Mycobacterium avium [15]): 64 µg/mL (≈ 169 µM); MIC (Mycobacterium avium [16]): 6.25 µg/mL (≈ 16.5 µM); selectivity ratio [17]: 4 to 6; MIC [18]: 32 µg/mL (≈ 84.5 µM); MIC (Mycobacterium avium [19]): 128 µg/mL (≈ 338 µM); MIC (Mycobacterium avium [20]): 3.12 µg/mL (≈ 8.26 µM); MIC (Mycobacterium avium [21]): 6.25 µg/mL (≈ 16.5 µM); MIC [22]: 64 µg/mL (≈ 169 µM); MIC (Mycobacterium avium [23]): 8 µg/mL (≈ 21.1 µM); MIC [24]: 256 µg/mL (≈ 676 µM); MIC (Mycobacterium avium [25]): 2 µg/mL (≈ 5.28 µM); MIC (Mycobacterium avium [26]): 8 µg/mL (≈ 21.1 µM); MIC (Mycobacterium avium [27]): 1020 µg/mL (≈ 2710 µM); MIC (Mycobacterium avium [28]): 8 µg/mL (≈ 21.1 µM); MIC (Mycobacterium avium [29]): 2 µg/mL (≈ 5.28 µM); MIC [30]: 128 µg/mL (≈ 338 µM); MIC (Mycobacterium avium [31]): 512 µg/mL (≈ 1350 µM); MIC (Mycobacterium avium [32]): 2 µg/mL (≈ 5.28 µM); MIC (Mycobacterium avium [33]): 4 µg/mL (≈ 10.6 µM); MIC (Mycobacterium avium [34]): 4 µg/mL (≈ 10.6 µM); MIC (Mycobacterium avium [35]): 6.25 µg/mL (≈ 16.5 µM); MIC (Mycobacterium avium [36]): 256 µg/mL (≈ 676 µM); MIC (Mycobacterium avium [37]): 4 µg/mL (≈ 10.6 µM); MIC (Mycobacterium avium [38]): 12.5 µg/mL (≈ 33 µM); MIC [39]: 64 µg/mL (≈ 169 µM); MIC (Mycobacterium avium [40]): 32 µg/mL (≈ 84.5 µM); MIC (Mycobacterium avium [41]): 256 µg/mL (≈ 676 µM); MIC (Mycobacterium avium [42]): 0.5 µg/mL (≈ 1.32 µM); MIC (Mycobacterium avium [43]): 16 µg/mL (≈ 42.3 µM); MIC (Mycobacterium avium [44]): 2 µg/mL (≈ 5.28 µM)

Question: What does the source list for `CN(C)CCCN1c2ccccc2Sc2ccc(Cl)cc21` [CHLORPROMAZINE]?
Answer: MIC (Mycobacterium avium [1]): < 0.0625 µg/mL; MIC (Mycobacterium avium [2]): > 512 µg/mL; MIC (Mycobacterium avium [3]): < 0.031 µg/mL; MIC (Mycobacterium avium [4]): 16 µg/mL (≈ 50.2 µM); MIC (Mycobacterium avium [5]): 3.12 µg/mL (≈ 9.8 µM); MIC (Mycobacterium avium [6]): 4 µg/mL (≈ 12.5 µM); MIC [7]: < 0.39 µg/mL; MIC (Mycobacterium avium [8]): 8 µg/mL (≈ 25.1 µM); MIC (Mycobacterium avium [9]): < 4 µg/mL; MIC (Mycobacterium avium [10]): 6.25 µg/mL (≈ 19.6 µM); MIC (Mycobacterium avium [11]): > 512 µg/mL; MIC (Mycobacterium avium [12]): < 4 µg/mL; MIC (Mycobacterium avium [13]): > 512 µg/mL; MIC [14]: 16 µg/mL (≈ 50.2 µM); MIC (Mycobacterium avium [15]): 128 µg/mL (≈ 401 µM); MIC (Mycobacterium avium [16]): 6.25 µg/mL (≈ 19.6 µM); MIC [18]: 16 µg/mL (≈ 50.2 µM); MIC (Mycobacterium avium [19]): 128 µg/mL (≈ 401 µM); MIC (Mycobacterium avium [20]): 0.78 µg/mL (≈ 2.45 µM); MIC (Mycobacterium avium [21]): 1.56 µg/mL (≈ 4.89 µM); MIC [22]: 16 µg/mL (≈ 50.2 µM); MIC (Mycobacterium avium [23]): 1 µg/mL (≈ 3.14 µM); MIC [24]: 60 µg/mL (≈ 188 µM); MIC (Mycobacterium avium [25]): 2 µg/mL (≈ 6.27 µM); MIC (Mycobacterium avium [26]): 8 µg/mL (≈ 25.1 µM); MIC (Mycobacterium avium [27]): > 512 µg/mL; MIC (Mycobacterium avium [28]): 32 µg/mL (≈ 100 µM); MIC (Mycobacterium avium [29]): 2 µg/mL (≈ 6.27 µM); MIC [30]: < 1 µg/mL; MIC (Mycobacterium avium [31]): > 512 µg/mL; MIC (Mycobacterium avium [32]): 0.0625 µg/mL (≈ 0.196 µM); MIC (Mycobacterium avium [33]): 1 µg/mL (≈ 3.14 µM); MIC (Mycobacterium avium [34]): 1 µg/mL (≈ 3.14 µM); MIC (Mycobacterium avium [35]): 12.5 µg/mL (≈ 39.2 µM); MIC (Mycobacterium avium [36]): 30 µg/mL (≈ 94.1 µM); MIC (Mycobacterium avium [37]): 1 µg/mL (≈ 3.14 µM); MIC (Mycobacterium avium [38]): 12.5 µg/mL (≈ 39.2 µM); MIC [39]: < 0.5 µg/mL; MIC (Mycobacterium avium [40]): 32 µg/mL (≈ 100 µM); MIC (Mycobacterium avium [41]): < 4 µg/mL; MIC (Mycobacterium avium [42]): 1 µg/mL (≈ 3.14 µM); MIC (Mycobacterium avium [43]): 44 µg/mL (≈ 138 µM); MIC (Mycobacterium avium [44]): 0.25 µg/mL (≈ 0.784 µM)

Reference: ChEMBL document CHEMBL4130462, “Natural isoflavone biochanin A as a template for the design of new and potent 3-phenylquinolone efflux inhibitors against Mycobacterium avium” (Eur J Med Chem, 2017)
